{"source": "patent US20160201075A1", "about": "“REGULATOR OF ALGAL LIPID METABOLISM AND CELLULAR […] ITS APPLICATIONS” (Board of Trustees of Michigan State University, priority 2014, published 2016)", "tested_on": "C. reinhardtii", "test": "Growth in medium with 1 μM Rapamycin (time needed for division)", "format": "cell-based, Chlamydomonas reinhardtii", "conditions": "saturating concentration of Rapamycin (1 μM)", "excerpt": "FIGS. 3A-3D illustrates the growth of cht7—expressing cells affected by different treatments. FIG. 3A graphically illustrates growth of cht7 and parental (dw15) lines on nitrogen-replete medium (optical density (OD) at 550 nm). Doubling times are given in parentheses. The grey bar indicates the OD at which nitrogen-replete samples were taken for all experiments in this study. Averages of three biological replicates are given with standard deviations for all points being smaller than 3%. FIG. 3B graphically illustrates growth of dw15, cht7, and four independent complementation lines (C1-4) during nitrogen deprivation (−N) followed by nitrogen resupply (+N) measured at the times indicted. Insert, cultures at 24 h following nitrogen resupply. FIG. 3C graphically illustrates growth during phosphate deprivation (−P) followed by phosphate resupply (+P). FIG. 3D graphically illustrates growth in the medium with 1 μM Rapamycin (+R) followed by the removal of Rapamycin (−R). Cultures were diluted twice (a) with medium containing 1 μM Rapamycin to avoid reaching stationary phase.\nGrowth under different nitrogen and phosphate regimes and following Rapamycin treatment, plating and viability assays, as well as lipid assays were performed using established methods.\nGrowth of the cht7 mutant was normal in nitrogen-replete medium under standard conditions (FIG. 3A). […]", "data": [{"smiles": "CO[C@H]1C[C@@H]2CC[C@@H](C)[C@@](O)(O2)C(=O)C(=O)N2CCCC[C@H]2C(=O)O[C@H]([C@H](C)C[C@@H]2CC[C@@H](O)[C@H](OC)C2)CC(=O)[C@H](C)/C=C(\\C)[C@@H](O)[C@@H](OC)C(=O)[C@H](C)C[C@H](C)/C=C/C=C/C=C/1C", "note": "[Rapamycin]", "values": [{"measurement": "time needed for division", "setting": "cht7 mutant", "result": 30.1, "unit": "h"}, {"measurement": "time needed for division", "setting": "parental line (dw15)", "result": 23.9, "unit": "h"}]}]}
